According to ChEMBL document CHEMBL4825668, “Discovery of Novel Pyrimidine-Based Capsid Assembly Modulators as Potent Anti-HBV Agents” (J Med Chem, 2021):

Tested on: Hepatitis B virus
Experiment: Inhibition of HBV recombinant Cp149 expressed in Escherichia coli BL21 (DE3) assessed as inhibition of capsid assembly at 10 uM incubated for 1 hr by immune blotting analysis relative to control
Settings: not given

Compound | inhibition
COc1ncccc1C(=O)N1CCN(c2cc(Nc3ccc(N4CCOCC4)cc3)nc(SC)n2)CC1 | 31%
CS(=O)(=O)c1nc(Nc2cc(F)c(F)c(F)c2)cc(Nc2cc(F)c(F)c(F)c2)n1 | 69%
COc1ncccc1C(=O)NCCNc1cc(Nc2ccc(F)cc2Cl)nc([S+](C)[O-])n1 (stereo not given) | 43%
COc1ncccc1C(=O)NCCNc1cc(Nc2ccc(N3CCOCC3)cc2)nc(SC)n1 | 23%
COc1ncccc1C(=O)NCCNc1cc(Nc2ccc(I)cc2)nc([S+](C)[O-])n1 (stereo not given) | 37%
CSc1nc(NCCNC(=O)c2cccnc2F)cc(Nc2ccc(N3CCOCC3)cc2)n1 | 0%
CS(=O)(=O)c1nc(Nc2ccc(F)c(Cl)c2)cc(Nc2ccc(F)c(Cl)c2)n1 | 57%
CSc1nc(NCCNC(=O)c2ccc(Cl)nc2Cl)cc(Nc2ccc(N3CCOCC3)cc2)n1 | 5%
CSc1nc(NCCNC(=O)c2cccnc2Cl)cc(Nc2ccc(N3CCOCC3)cc2)n1 | 2%
CSc1nc(NCCNC(=O)c2cccc(Cl)n2)cc(Nc2ccc(N3CCOCC3)cc2)n1 | 0%
COc1cncc(C(=O)NCCNc2cc(Nc3ccc(N4CCOCC4)cc3)nc([S+](C)[O-])n2)c1 (stereo not given) | 78%
COc1ncccc1C(=O)NCCNc1cc(Nc2ccc(F)c(F)c2)nc([S+](C)[O-])n1 (stereo not given) | 38%
COc1cncc(C(=O)NCCNc2cc(Nc3ccc(N4CCOCC4)cc3)nc(SC)n2)c1 | 37%
CSc1nc(NCCNC(=O)c2ncc(F)cc2F)cc(Nc2ccc(N3CCOCC3)cc2)n1 | 1%
CS(=O)(=O)c1nc(Nc2ccc(F)cc2)cc(Nc2ccc(F)cc2)n1 | 49%
COC(=O)C1=C(C)NC(c2ncc(F)cc2F)=N[C@H]1c1ccc(F)cc1Cl | 37%
C[S+]([O-])c1nc(NCCNC(=O)c2cccnc2)cc(Nc2ccc(N3CCOCC3)cc2)n1 (stereo not given) | 13%
CSc1nc(NCCNC(=O)c2cccnc2)cc(Nc2ccc(N3CCOCC3)cc2)n1 | 43%
COc1ncccc1C(=O)N1CCN(c2cc(Nc3ccc(N4CCOCC4)cc3)nc([S+](C)[O-])n2)CC1 (stereo not given) | 33%

Tested on: Hepatitis B virus
Experiment: Inhibition of HBV recombinant Cp149 expressed in Escherichia coli BL21 (DE3) assessed as inhibition of capsid assembly at 1 uM incubated for 1 hr by immune blotting analysis relative to control
Settings: not given

Compound | inhibition
CS(=O)(=O)c1nc(Nc2cc(F)c(F)c(F)c2)cc(NC2CCC(N)CC2)n1 (stereo not given) | 96%
CS(=O)(=O)c1nc(Nc2ccc(F)c(Br)c2)cc(N2CCNCC2)n1 | 98%
COc1ncccc1C(=O)NCCNc1cc(Nc2ccc(Cl)cc2)nc([S+](C)[O-])n1 (stereo not given) | 80%
CS(=O)(=O)c1nc(Nc2ccc(F)c(Cl)c2)cc(N2CCNCC2)n1 | 90%
COc1ncccc1C(=O)NCCNc1cc(Nc2ccccc2)nc([S+](C)[O-])n1 (stereo not given) | 83%
CS(=O)(=O)c1nc(Nc2ccc(F)c(Br)c2)cc(NC2CCNCC2)n1 | 97%
CS(=O)(=O)c1nc(Nc2cc(F)c(F)c(F)c2)cc(NC2CCNCC2)n1 | 90%
COc1ncccc1C(=O)NCCNc1cc(Nc2ccc(F)cc2)nc([S+](C)[O-])n1 (stereo not given) | 83%
COc1cncc(C(=O)NCCNc2cc(Nc3ccc(N4CCOCC4)cc3)nc([S+](C)[O-])n2)c1 (stereo not given) | 83%
COc1ncccc1C(=O)NCCNc1cc(Nc2ccc(N3CCOCC3)cc2)nc(S(C)(=O)=O)n1 | 86%
CCOC(=O)C1=C(CN2CCOCC2)NC(c2nccs2)=N[C@H]1c1ccc(F)cc1Br | 93%
CS(=O)(=O)c1nc(Nc2ccc(F)c(Br)c2)cc(NC2CCC(N)CC2)n1 (stereo not given) | 98%
COc1ncccc1C(=O)NCCNc1cc(Nc2ccc(Br)cc2)nc([S+](C)[O-])n1 (stereo not given) | 82%
CS(=O)(=O)c1nc(Nc2ccc(F)c(Cl)c2)cc(NC2CCNCC2)n1 | 95%

Tested on: Hepatitis B virus
Experiment: Inhibition of HBV recombinant Cp149 expressed in Escherichia coli BL21 (DE3) assessed as inhibition of capsid assembly at 0.1 uM incubated for 1 hr by immune blotting analysis relative to control
Settings: not given

Compound | inhibition
CS(=O)(=O)c1nc(Nc2cc(F)c(F)c(F)c2)cc(NC2CCC(N)CC2)n1 (stereo not given) | 29%
CS(=O)(=O)c1nc(Nc2ccc(F)c(Br)c2)cc(N2CCNCC2)n1 | 13%
COc1ncccc1C(=O)NCCNc1cc(Nc2ccc(Cl)cc2)nc([S+](C)[O-])n1 (stereo not given) | 27%
CS(=O)(=O)c1nc(Nc2ccc(F)c(Cl)c2)cc(N2CCNCC2)n1 | 47%
COc1ncccc1C(=O)NCCNc1cc(Nc2ccccc2)nc([S+](C)[O-])n1 (stereo not given) | 14%
CS(=O)(=O)c1nc(Nc2ccc(F)c(Br)c2)cc(NC2CCNCC2)n1 | 7%
CS(=O)(=O)c1nc(Nc2cc(F)c(F)c(F)c2)cc(NC2CCNCC2)n1 | 16%
COc1ncccc1C(=O)NCCNc1cc(Nc2ccc(F)cc2)nc([S+](C)[O-])n1 (stereo not given) | 32%
COc1cncc(C(=O)NCCNc2cc(Nc3ccc(N4CCOCC4)cc3)nc([S+](C)[O-])n2)c1 (stereo not given) | 43%
COc1ncccc1C(=O)NCCNc1cc(Nc2ccc(N3CCOCC3)cc2)nc(S(C)(=O)=O)n1 | 49%
CCOC(=O)C1=C(CN2CCOCC2)NC(c2nccs2)=N[C@H]1c1ccc(F)cc1Br | 49%
CS(=O)(=O)c1nc(Nc2ccc(F)c(Br)c2)cc(NC2CCC(N)CC2)n1 (stereo not given) | 10%
COc1ncccc1C(=O)NCCNc1cc(Nc2ccc(Br)cc2)nc([S+](C)[O-])n1 (stereo not given) | 27%
CS(=O)(=O)c1nc(Nc2ccc(F)c(Cl)c2)cc(NC2CCNCC2)n1 | 59%

Tested on: Hepatitis B virus
Experiment: Antiviral activity against Human hepatitis B virus in Huh-7 cells assessed as reduction in intracellular viral DNA level incubated for 36 hrs by qPCR analysis
Type: functional, organism-based
Settings: Huh-7, 36 h

Compound | IC50
COc1ncccc1C(=O)N1CCN(c2cc(Nc3ccc(N4CCOCC4)cc3)nc(SC)n2)CC1 | > 10000 nM
CS(=O)(=O)c1nc(Nc2cc(F)c(F)c(F)c2)cc(Nc2cc(F)c(F)c(F)c2)n1 | 1020 nM
CS(=O)(=O)c1nc(Nc2cc(F)c(F)c(F)c2)cc(NC2CCC(N)CC2)n1 (stereo not given) | 292 nM
COc1ncccc1C(=O)NCCNc1cc(Nc2ccc(F)cc2Cl)nc([S+](C)[O-])n1 (stereo not given) | > 10000 nM
COc1ncccc1C(=O)NCCNc1cc(Nc2ccc(N3CCOCC3)cc2)nc(SC)n1 | > 10000 nM
COc1ncccc1C(=O)NCCNc1cc(Nc2ccc(I)cc2)nc([S+](C)[O-])n1 (stereo not given) | > 10000 nM
CS(=O)(=O)c1nc(Nc2ccc(F)c(Br)c2)cc(N2CCNCC2)n1 | 547 nM
COc1ncccc1C(=O)NCCNc1cc(Nc2ccc(Cl)cc2)nc([S+](C)[O-])n1 (stereo not given) | 299 nM
CS(=O)(=O)c1nc(Nc2ccc(F)c(Cl)c2)cc(Nc2ccc(F)c(Cl)c2)n1 | 587 nM
COc1ncccc1C(=O)NCCNc1cc(Nc2ccccc2)nc([S+](C)[O-])n1 (stereo not given) | 484 nM
CS(=O)(=O)c1nc(Nc2ccc(F)c(Br)c2)cc(NC2CCNCC2)n1 | 536 nM
CS(=O)(=O)c1nc(Nc2cc(F)c(F)c(F)c2)cc(NC2CCNCC2)n1 | 190 nM
COc1ncccc1C(=O)NCCNc1cc(Nc2ccc(F)cc2)nc([S+](C)[O-])n1 (stereo not given) | 210 nM
COc1cncc(C(=O)NCCNc2cc(Nc3ccc(N4CCOCC4)cc3)nc([S+](C)[O-])n2)c1 (stereo not given) | > 10000 nM
COc1ncccc1C(=O)NCCNc1cc(Nc2ccc(F)c(F)c2)nc([S+](C)[O-])n1 (stereo not given) | > 10000 nM
COc1ncccc1C(=O)NCCNc1cc(Nc2ccc(N3CCOCC3)cc2)nc(S(C)(=O)=O)n1 | 198 nM
CCOC(=O)C1=C(CN2CCOCC2)NC(c2nccs2)=N[C@H]1c1ccc(F)cc1Br | 188 nM
COc1cncc(C(=O)NCCNc2cc(Nc3ccc(N4CCOCC4)cc3)nc(SC)n2)c1 | 8420 nM
CS(=O)(=O)c1nc(Nc2ccc(F)c(Br)c2)cc(NC2CCC(N)CC2)n1 (stereo not given) | 480 nM
CS(=O)(=O)c1nc(Nc2ccc(F)cc2)cc(Nc2ccc(F)cc2)n1 | 6400 nM
COC(=O)C1=C(C)NC(c2ncc(F)cc2F)=N[C@H]1c1ccc(F)cc1Cl | 205 nM
COc1ncccc1C(=O)NCCNc1cc(Nc2ccc(Br)cc2)nc([S+](C)[O-])n1 (stereo not given) | 177 nM
CS(=O)(=O)c1nc(Nc2ccc(F)c(Cl)c2)cc(NC2CCNCC2)n1 | 199 nM
C[S+]([O-])c1nc(NCCNC(=O)c2cccnc2)cc(Nc2ccc(N3CCOCC3)cc2)n1 (stereo not given) | > 10000 nM
CSc1nc(NCCNC(=O)c2cccnc2)cc(Nc2ccc(N3CCOCC3)cc2)n1 | > 10000 nM
COc1ncccc1C(=O)N1CCN(c2cc(Nc3ccc(N4CCOCC4)cc3)nc([S+](C)[O-])n2)CC1 (stereo not given) | > 10000 nM

Tested on: not listed separately
Experiment: Metabolic stability in mouse liver microsomes assessed as compound remaining at […] incubated for 30 mins by LC/MS/MS analysis
Type: ADME, Microsome
Settings: read-out: Stabilty

Compound | remaining at 0.5 h
CS(=O)(=O)c1nc(Nc2cc(F)c(F)c(F)c2)cc(Nc2cc(F)c(F)c(F)c2)n1 | 99.9%
COc1ncccc1C(=O)NCCNc1cc(Nc2ccc(N3CCOCC3)cc2)nc(SC)n1 | 17.8%
O=C1CC2(CCCC2)CC(=O)N1CCCCN1CCN(c2ncccn2)CC1 [BUSPIRONE] | 0.906%
CS(=O)(=O)c1nc(Nc2ccc(F)c(Cl)c2)cc(Nc2ccc(F)c(Cl)c2)n1 | 92.9%
CS(=O)(=O)c1nc(Nc2cc(F)c(F)c(F)c2)cc(NC2CCNCC2)n1 | 98.6%
CS(=O)(=O)c1nc(Nc2ccc(F)cc2)cc(Nc2ccc(F)cc2)n1 | 37.7%
CS(=O)(=O)c1nc(Nc2ccc(F)c(Cl)c2)cc(NC2CCNCC2)n1 | 93.9%

Tested on: not listed separately
Experiment: Metabolic stability in rat liver microsomes assessed as compound remaining at […] incubated for 30 mins by LC/MS/MS analysis
Type: ADME, Microsome
Settings: read-out: Stabilty

Compound | remaining at 0.5 h
CS(=O)(=O)c1nc(Nc2cc(F)c(F)c(F)c2)cc(Nc2cc(F)c(F)c(F)c2)n1 | 99.9%
COc1ncccc1C(=O)NCCNc1cc(Nc2ccc(N3CCOCC3)cc2)nc(SC)n1 | 49%
O=C1CC2(CCCC2)CC(=O)N1CCCCN1CCN(c2ncccn2)CC1 [BUSPIRONE] | 0.528%
CS(=O)(=O)c1nc(Nc2ccc(F)c(Cl)c2)cc(Nc2ccc(F)c(Cl)c2)n1 | 99.9%
CS(=O)(=O)c1nc(Nc2cc(F)c(F)c(F)c2)cc(NC2CCNCC2)n1 | 98.2%
CS(=O)(=O)c1nc(Nc2ccc(F)cc2)cc(Nc2ccc(F)cc2)n1 | 74.4%
CS(=O)(=O)c1nc(Nc2ccc(F)c(Cl)c2)cc(NC2CCNCC2)n1 | 85.1%

Tested on: not listed separately
Experiment: Metabolic stability in human liver microsomes assessed as compound remaining at […] incubated for 30 mins by LC/MS/MS analysis
Type: ADME, Microsome
Settings: read-out: Stabilty

Compound | remaining at 0.5 h
CS(=O)(=O)c1nc(Nc2cc(F)c(F)c(F)c2)cc(Nc2cc(F)c(F)c(F)c2)n1 | 99.9%
COc1ncccc1C(=O)NCCNc1cc(Nc2ccc(N3CCOCC3)cc2)nc(SC)n1 | 58.8%
O=C1CC2(CCCC2)CC(=O)N1CCCCN1CCN(c2ncccn2)CC1 [BUSPIRONE] | 2.44%
CS(=O)(=O)c1nc(Nc2ccc(F)c(Cl)c2)cc(Nc2ccc(F)c(Cl)c2)n1 | 99.9%
CS(=O)(=O)c1nc(Nc2ccc(F)cc2)cc(Nc2ccc(F)cc2)n1 | 42.8%
CS(=O)(=O)c1nc(Nc2ccc(F)c(Cl)c2)cc(NC2CCNCC2)n1 | 92.9%

Tested on: not listed separately
Experiment: Permeability of the compound at pH 7.4 by PAMPA
Type: ADME
Settings: not given

Compound | log(permeability)
CS(=O)(=O)c1nc(Nc2cc(F)c(F)c(F)c2)cc(NC2CCNCC2)n1 | <= -6
CS(=O)(=O)c1nc(Nc2ccc(F)c(Cl)c2)cc(NC2CCNCC2)n1 | -5.46
